From US20230085307A1, “PYRIDAZINONE COMPOUND AND HERBICIDE” (NISSAN CHEMICAL CORPORATION, priority 2019, published 2023)

How the values were obtained:
Chinese sprangletop = test: Test Example 3: herbicidal effect by foliage application, Wagner pot (Table 18, symbol D); assay type: in vivo, chinese sprangletop (Leptochloa chinensis)
Summary of the method: (§1)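 Plants were sown in alluvial soil held under 0.1–0.5 cm standing water and grown 14 days in a greenhouse at 25–30 °C. An emulsifiable formulation, water-diluted to the set dose, was then sprayed onto the foliage, and effects were scored three weeks later using previously defined criteria.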

green foxtail [1] = test: Test Example 4: herbicidal effect by soil treatment (Table 19, symbol G); assay type: in vivo, green foxtail (Setaria viridis)
Summary of the method: (§2)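 Scoring uses the grading scale of an earlier test, three weeks post-application. Treatment consists of spraying a diluted emulsion formulation across the surface of sterilized diluvial soil in which seeds are buried near 1.5 cm deep; boxes are kept in a greenhouse between 25° C. and 30° C.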

Italian ryegrass [2] = test: Test Example 5: herbicidal effect by foliage application, plastic box (Table 20, symbol K); assay type: in vivo, Italian ryegrass (Lolium multiflorum); settings: foliage application, 320 g/ha
Summary of the method: (§3)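 Post-emergence foliar test in sterilized diluvial soil. Compound applied as water-diluted emulsion at a predetermined rate to 14-day-old plants; evaluation at three weeks.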

wild oat [3] = test: Test Example 4: herbicidal effect by soil treatment (Table 19, symbol I); assay type: in vivo, wild oat (Avena fatua)
Summary of the method: as §2

Japanese bulrush = test: Test Example 2: herbicidal activity, application during weed generation under submerged conditions (Table 17, symbol B); assay type: in vivo, Japanese bulrush (Schoenoplectus juncoides); settings: AAH 320 g/ha; application during weed generation, submerged conditions
Summary of the method: (§4)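 Alluvial soil in Wagner pots was flooded to 4 cm depth and sown with the three weeds together; pots were kept in a greenhouse at 25° C. to 30° C. At the one to two leaf stage, an emulsion formulation diluted in water to a set rate went onto the water surface; scored three weeks later.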

velvetleaf [4] = test: Test Example 5: herbicidal effect by foliage application, plastic box (Table 20, symbol M); assay type: in vivo, velvetleaf (Abutilon theophrasti); settings: foliage application, 320 g/ha
Summary of the method: as §3

blackgrass [5] = test: Test Example 5: herbicidal effect by foliage application, plastic box (Table 20, symbol J); assay type: in vivo, blackgrass (Alopecurus myosuroides); settings: foliage application, 320 g/ha
Summary of the method: as §3

blackgrass [6] = test: Test Example 4: herbicidal effect by soil treatment (Table 19, symbol J); assay type: in vivo, blackgrass (Alopecurus myosuroides)
Summary of the method: as §2

persian speedwell [7] = test: Test Example 5: herbicidal effect by foliage application, plastic box (Table 20, symbol R); assay type: in vivo, Persian speedwell (Veronica persica); settings: foliage application, 320 g/ha
Summary of the method: as §3

southern crabgrass [8] = test: Test Example 5: herbicidal effect by foliage application, plastic box (Table 20, symbol F); assay type: in vivo, southern crabgrass (Digitaria ciliaris); settings: foliage application, 320 g/ha
Summary of the method: as §3

redroot pigweed [9] = test: Test Example 4: herbicidal effect by soil treatment (Table 19, symbol N); assay type: in vivo, redroot pigweed (Amaranthus retroflexus)
Summary of the method: as §2

persian speedwell [10] = test: Test Example 4: herbicidal effect by soil treatment (Table 19, symbol R); assay type: in vivo, Persian speedwell (Veronica persica)
Summary of the method: as §2

southern crabgrass [11] = test: Test Example 4: herbicidal effect by soil treatment (Table 19, symbol F); assay type: in vivo, southern crabgrass (Digitaria ciliaris)
Summary of the method: as §2

lambsquarters [12] = test: Test Example 4: herbicidal effect by soil treatment (Table 19, symbol O); assay type: in vivo, lambsquarters (Chenopodium album)
Summary of the method: as §2

green foxtail [13] = test: Test Example 5: herbicidal effect by foliage application, plastic box (Table 20, symbol G); assay type: in vivo, green foxtail (Setaria viridis); settings: foliage application, 320 g/ha
Summary of the method: as §3

barnyard grass [14] = test: Test Example 3: herbicidal effect by foliage application, Wagner pot (Table 18, symbol H); assay type: in vivo, barnyard grass (Echinochloa crus-galli)
Summary of the method: as §1

velvetleaf [15] = test: Test Example 4: herbicidal effect by soil treatment (Table 19, symbol M); assay type: in vivo, velvetleaf (Abutilon theophrasti)
Summary of the method: as §2

wild oat [16] = test: Test Example 5: herbicidal effect by foliage application, plastic box (Table 20, symbol I); assay type: in vivo, wild oat (Avena fatua); settings: foliage application, 320 g/ha
Summary of the method: as §3

chickweed [17] = test: Test Example 4: herbicidal effect by soil treatment (Table 19, symbol P); assay type: in vivo, common chickweed (Stellaria media); settings: 320 g/ha
Summary of the method: as §2

windgrass [18] = test: Test Example 5: herbicidal effect by foliage application, plastic box (Table 20, symbol L); assay type: in vivo, windgrass (Apera spica-venti); settings: foliage application, 320 g/ha
Summary of the method: as §3

lambsquarters [19] = test: Test Example 5: herbicidal effect by foliage application, plastic box (Table 20, symbol O); assay type: in vivo, lambsquarters (Chenopodium album); settings: foliage application, 320 g/ha
Summary of the method: as §3

late watergrass = test: Test Example 2: herbicidal activity, application during weed generation under submerged conditions (Table 17, symbol A); assay type: in vivo, late watergrass (Echinochloa oryzicola); settings: AAH 320 g/ha; application during weed generation, submerged conditions
Summary of the method: as §4

windgrass [20] = test: Test Example 4: herbicidal effect by soil treatment (Table 19, symbol L); assay type: in vivo, windgrass (Apera spica-venti)
Summary of the method: as §2

barnyard grass [21] = test: Test Example 5: herbicidal effect by foliage application, plastic box (Table 20, symbol H); assay type: in vivo, barnyard grass (Echinochloa crus-galli); settings: foliage application, 320 g/ha
Summary of the method: as §3

oval-leafed pondweed = test: Test Example 2: herbicidal activity, application during weed generation under submerged conditions (Table 17, symbol C); assay type: in vivo, oval-leafed pondweed (Monochoria vaginalis); settings: AAH 320 g/ha; application during weed generation, submerged conditions
Summary of the method: as §4

rice flat sedge = test: Test Example 3: herbicidal effect by foliage application, Wagner pot (Table 18, symbol E); assay type: in vivo, rice flat sedge (Cyperus iria)
Summary of the method: as §1

Italian ryegrass [22] = test: Test Example 4: herbicidal effect by soil treatment (Table 19, symbol K); assay type: in vivo, Italian ryegrass (Lolium multiflorum)
Summary of the method: as §2

barnyard grass [23] = test: Test Example 4: herbicidal effect by soil treatment (Table 19, symbol H); assay type: in vivo, barnyard grass (Echinochloa crus-galli)
Summary of the method: as §2

redroot pigweed [24] = test: Test Example 5: herbicidal effect by foliage application, plastic box (Table 20, symbol N); assay type: in vivo, redroot pigweed (Amaranthus retroflexus); settings: foliage application, 320 g/ha, evaluated three weeks after application
Summary of the method: as §3

chickweed [25] = test: Test Example 5: herbicidal effect by foliage application, plastic box (Table 20, symbol P); assay type: in vivo, common chickweed (Stellaria media); settings: foliage application, 320 g/ha, evaluated three weeks after application
Summary of the method: as §3

[26] = amount of applied herbicide 320 g/ha
[27] = evaluated three weeks after application

COCCOCOc1c(C)nn(C)c(=O)c1-c1c(-c2ccc(C(C)C)cc2)sc2ccc(F)cc12 [2-015]
herbicidal effect on D (Chinese sprangletop), rating 0-5 (Chinese sprangletop; 320 g/ha): 5 (Herbicidal rate of 90% or more (almost completely withered))
herbicidal effect rating, G: green foxtail (green foxtail [1]; 320 g/ha): 0 (Herbicidal rate of 5% or less (almost no effect))
effect on Italian ryegrass (K) (Italian ryegrass [2]; 3 weeks after application): 0 (Herbicidal rate of 5% or less (almost no effect))
herbicidal effect rating, I: wild oat (wild oat [3]; 320 g/ha): 0 (Herbicidal rate of 5% or less (almost no effect))
herbicidal effect rating, B: Japanese bulrush (Japanese bulrush): 0 (Herbicidal rate of 5% or less (almost no effect))
effect on velvetleaf (M) (velvetleaf [4]; 3 weeks after application): 5 (Herbicidal rate of 90% or more (almost completely withered))
effect on blackgrass (J) (blackgrass [5]; 3 weeks after application): 0 (Herbicidal rate of 5% or less (almost no effect))
herbicidal effect rating, J: blackgrass (blackgrass [6]; 320 g/ha): 0 (Herbicidal rate of 5% or less (almost no effect))
effect on persian speedwell (R) (persian speedwell [7]; 3 weeks after application): 5 (Herbicidal rate of 90% or more (almost completely withered))
effect on southern crabgrass (F) (southern crabgrass [8]; 3 weeks after application): 1 (Herbicidal rate of 5% or more and less than 20%)
herbicidal effect rating, N: redroot pigweed (redroot pigweed [9]; 320 g/ha): 5 (Herbicidal rate of 90% or more (almost completely withered))
herbicidal effect rating, R: persian speedwell (persian speedwell [10]; 320 g/ha): 4 (Herbicidal rate of 70% or more and less than 90%)
herbicidal effect rating, F: southern crabgrass (southern crabgrass [11]; 320 g/ha): 0 (Herbicidal rate of 5% or less (almost no effect))
herbicidal effect rating, O: lambsquarters (lambsquarters [12]; 320 g/ha): 2 (Herbicidal rate of 20% or more and less than 40%)
effect on green foxtail (G) (green foxtail [13]; 3 weeks after application): 0 (Herbicidal rate of 5% or less (almost no effect))
herbicidal effect on H (barnyard grass), rating 0-5 (barnyard grass [14]; 320 g/ha): 5 (Herbicidal rate of 90% or more (almost completely withered))
herbicidal effect rating, M: velvetleaf (velvetleaf [15]; 320 g/ha): 0 (Herbicidal rate of 5% or less (almost no effect))
effect on wild oat (I) (wild oat [16]; 3 weeks after application): 0 (Herbicidal rate of 5% or less (almost no effect))
herbicidal effect rating, P: chickweed (chickweed [17]): 0 (Herbicidal rate of 5% or less (almost no effect))
effect on windgrass (L) (windgrass [18]; 3 weeks after application): 4 (Herbicidal rate of 70% or more and less than 90%)
effect on lambsquarters (O) (lambsquarters [19]; 3 weeks after application): 5 (Herbicidal rate of 90% or more (almost completely withered))
herbicidal effect rating, A: late watergrass (late watergrass): 4 (Herbicidal rate of 70% or more and less than 90%)
herbicidal effect rating, L: windgrass (windgrass [20]; 320 g/ha): 0 (Herbicidal rate of 5% or less (almost no effect))
effect on barnyard grass (H) (barnyard grass [21]; 3 weeks after application): 3 (Herbicidal rate of 40% or more and less than 70%)
herbicidal effect rating, C: oval-leafed pondweed (oval-leafed pondweed): 0 (Herbicidal rate of 5% or less (almost no effect))
herbicidal effect on E (rice flat sedge), rating 0-5 (rice flat sedge; 320 g/ha): 5 (Herbicidal rate of 90% or more (almost completely withered))
herbicidal effect rating, K: Italian ryegrass (Italian ryegrass [22]; 320 g/ha): 0 (Herbicidal rate of 5% or less (almost no effect))
herbicidal effect rating, H: barnyard grass (barnyard grass [23]; 320 g/ha): 0 (Herbicidal rate of 5% or less (almost no effect))

CCCSc1ccc(-c2sc3ccc(F)cc3c2-c2c(O)c(C)nn(C)c2=O)cc1 [2-248]
herbicidal effect on N: redroot pigweed (criteria 0-5) (redroot pigweed [24]): 5 (Herbicidal rate of 90% or more (almost completely withered))
herbicidal effect on D: Chinese sprangletop (Chinese sprangletop; [26]): 5 (Herbicidal rate of 90% or more (almost completely withered))
herbicidal effect on G: green foxtail (green foxtail [1]; [26]): 4 (Herbicidal rate of 70% or more and less than 90%)
herbicidal effect on K: Italian ryegrass (criteria 0-5) (Italian ryegrass [2]; [27]): 4 (Herbicidal rate of 70% or more and less than 90%)
herbicidal effect on I: wild oat (wild oat [3]; [26]): 0 (Herbicidal rate of 5% or less (almost no effect))
herbicidal effect rating, B: Japanese bulrush (Japanese bulrush): 0 (Herbicidal rate of 5% or less (almost no effect))
herbicidal effect on M: velvetleaf (criteria 0-5) (velvetleaf [4]; [27]): 5 (Herbicidal rate of 90% or more (almost completely withered))
herbicidal effect on J: blackgrass (criteria 0-5) (blackgrass [5]; [27]): 4 (Herbicidal rate of 70% or more and less than 90%)
herbicidal effect on J: blackgrass (blackgrass [6]; [26]): 0 (Herbicidal rate of 5% or less (almost no effect))
herbicidal effect on R: persian speedwell (criteria 0-5) (persian speedwell [7]; [27]): 5 (Herbicidal rate of 90% or more (almost completely withered))
herbicidal effect on F: southern crabgrass (criteria 0-5) (southern crabgrass [8]; [27]): 5 (Herbicidal rate of 90% or more (almost completely withered))
herbicidal effect on N: redroot pigweed (redroot pigweed [9]; [26]): 5 (Herbicidal rate of 90% or more (almost completely withered))
herbicidal effect on R: persian speedwell (persian speedwell [10]; [26]): 4 (Herbicidal rate of 70% or more and less than 90%)
herbicidal effect on F: southern crabgrass (southern crabgrass [11]; [26]): 1 (Herbicidal rate of 5% or more and less than 20%)
herbicidal effect on O: lambsquarters (lambsquarters [12]; [26]): 4 (Herbicidal rate of 70% or more and less than 90%)
herbicidal effect on G: green foxtail (criteria 0-5) (green foxtail [13]; [27]): 5 (Herbicidal rate of 90% or more (almost completely withered))
herbicidal effect on H: barnyard grass (barnyard grass [14]; [26]): 5 (Herbicidal rate of 90% or more (almost completely withered))
herbicidal effect on M: velvetleaf (velvetleaf [15]; [26]): 3 (Herbicidal rate of 40% or more and less than 70%)
herbicidal effect on P: chickweed (criteria 0-5) (chickweed [25]): 5 (Herbicidal rate of 90% or more (almost completely withered))
herbicidal effect on I: wild oat (criteria 0-5) (wild oat [16]; [27]): 5 (Herbicidal rate of 90% or more (almost completely withered))
herbicidal effect on L: windgrass (criteria 0-5) (windgrass [18]; [27]): 5 (Herbicidal rate of 90% or more (almost completely withered))
herbicidal effect on O: lambsquarters (criteria 0-5) (lambsquarters [19]; [27]): 5 (Herbicidal rate of 90% or more (almost completely withered))
herbicidal effect rating, A: late watergrass (late watergrass): 4 (Herbicidal rate of 70% or more and less than 90%)
herbicidal effect on L: windgrass (windgrass [20]; [26]): 0 (Herbicidal rate of 5% or less (almost no effect))
herbicidal effect on H: barnyard grass (criteria 0-5) (barnyard grass [21]; [27]): 5 (Herbicidal rate of 90% or more (almost completely withered))
herbicidal effect rating, C: oval-leafed pondweed (oval-leafed pondweed): 0 (Herbicidal rate of 5% or less (almost no effect))
herbicidal effect on E: rice flat sedge (rice flat sedge; [26]): 4 (Herbicidal rate of 70% or more and less than 90%)
herbicidal effect on K: Italian ryegrass (Italian ryegrass [22]; [26]): 0 (Herbicidal rate of 5% or less (almost no effect))
herbicidal effect on H: barnyard grass (barnyard grass [23]; [26]): 2 (Herbicidal rate of 20% or more and less than 40%)
